Our source for the IC50 values is patent US11851440B2, “Modulators of eukaryotic initiation factor 2B, compositions and methods” (Denali Therapeutics Inc., priority 2017, dated 2023).

Each structure is given as a SMILES string.

The subject of one experiment is ISR pathway (ATF4 translation). Description: ATF4 Nano Luciferase reporter integrated stress response (ISR) assay in H4 ATF4-NLuc cells. The following applies: H4 ATF4-NLuc (clone 17) cells; compound 30 minutes, then 50 um sodium arsenite for 6 hours; luminescence readout. In general terms: Reporter assays use an easily measured gene product as a stand-in for the process of interest.
For `O=C(NC12CC(c3nnc([C@H]4C[C@@H](OC(F)(F)F)C4)o3)(C1)C2)c1ccc2cc(F)ccc2n1` [Example 189, 6-fluoro-N-[1-[5-[3-cis-(trifluoromethoxy)cyclobutyl]-1,3,4-oxadiazol-2-yl]-3-bicyclo[1.1.1]pentanyl]quinoline-2-carboxamide], the IC50 (as a rule, the concentration that inhibits the measured activity by half) was determined as 0.0285 µM.

Still in this experiment, the particulars now being: Homo sapiens, read-out: Activity (IC50).
For the molecule `CC(C)(C)[Si](C)(C)O[C@H]1C[C@@H](c2nnc(C34CC(NC(=O)COc5ccc(Cl)cc5)(C3)C4)o2)C1` [Example 260], the IC50 was under 1 µM.

The same experiment, now with this note: Homo sapiens, read-out: Activity (IC50), H4 ATF4-NLuc (clone 17) cells; compound 30 minutes, then 50 um sodium arsenite for 6 hours; luminescence readout.
Regarding `O=C(COc1ccc(Cl)c(F)c1)NC12CC(c3nnc([C@@H]4CC[C@H](COC(F)(F)F)O4)o3)(C1)C2` [Example 124, 2-(4-chloro-3-fluoro-phenoxy)-N-[3-[5-[5-cis-(trifluoromethoxymethyl)tetrahydrofuran-2-yl]-1,3,4-oxadiazol-2-yl]-1-bicyclo[1.1.1]pentanyl]acetamide], the IC50 is under 1 µM. The same measure, in the same setting: as for `O=C(COc1cccc(F)c1)NC12CC(c3nnc([C@H]4C[C@@H](OC(F)(F)F)C4)o3)(C1)C2` [Example 105, 2-(3-fluorophenoxy)-N-[3-[5-[3-cis-(trifluoromethoxy)cyclobutyl]-1,3,4-oxadiazol-2-yl]-1-bicyclo[1.1.1]pentanyl]acetamide], the figure is under 1 µM; as for `O=C(NC12CC(n3cnc(-c4ccc(F)c(F)c4)c3)(C1)C2)[C@H]1C[C@H](OCCOC(F)(F)F)C1` [Example 249], under 1 µM. With `O=C(COC1CN(CC(F)(F)F)C1)NC12CC(c3nnc([C@H]4C[C@@H](OC(F)(F)F)C4)o3)(C1)C2` [Example 116, 2-[1-(2,2,2-trifluoroethyl)azetidin-3-yl]oxy-N-[3-[5-[3-cis-(trifluoromethoxy)cyclobutyl]-1,3,4-oxadiazol-2-yl]-1-bicyclo[1.1.1]pentanyl]acetamide], the IC50 fell in the range of 1 to 10 µM.

As for `O=C(CO[C@H]1C[C@@H](OC(F)(F)F)C1)NC12CC(n3cnc(-c4ccc(C(F)(F)F)c(F)c4)c3)(C1)C2` [Example 149], the IC50 is under 1 µM. For the molecule `O=C(CO[C@H]1C[C@@H](COC(F)(F)F)C1)NC12CC(c3nnc([C@H]4C[C@@H](OC(F)(F)F)C4)o3)(C1)C2` [Example 89, N-[3-[5-[3-cis-(trifluoromethoxy)cyclobutyl]-1,3,4-oxadiazol-2-yl]-1-bicyclo[1.1.1]pentanyl]-2-[3-cis-(trifluoromethoxymethyl)cyclobutoxy]acetamide], the IC50 was under 1 µM. The same measure, in the same setting: then `O=C(COc1ccc(Cl)c(F)c1)NC12CC(c3nnc(C4(F)CN(CC(F)(F)F)C4)o3)(C1)C2` [Example 93, 2-(4-chloro-3-fluoro-phenoxy)-N-[3-[5-[3-fluoro-1-(2,2,2-trifluoroethyl)azetidin-3-yl]-1,3,4-oxadiazol-2-yl]-1-bicyclo[1.1.1]pentanyl]acetamide], with under 1 µM; and `O=C(COc1ccc(Cl)c(F)c1)NC12CC(c3cn(C4CC(O)C4)nn3)(C1)C2` (stereo not drawn) [Example 57], with 1 to 10 µM. Consider `O=C(CO[C@H]1C[C@@H](OC(F)(F)F)C1)NC12CC(c3nc(-c4ccc(Cl)cc4)no3)(C1)C2` [Example 205], for which the IC50 is under 1 µM. Take `O=C(COc1ccc(Cl)c(F)c1)NC12CC(c3nnc([C@H]4C[C@@H]4C(F)F)o3)(C1)C2` (single isomer, unassigned) [Example 84, 2-(4-chloro-3-fluoro-phenoxy)-N-[3-[5-[2-trans-(difluoromethyl)cyclopropyl]-1,3,4-oxadiazol-2-yl]-1-bicyclo[1.1.1]pentanyl]acetamide]: the IC50 is under 1 µM. Still for that read-out and setting: then `O=C(COc1ccc(Cl)c(F)c1)NC12CC(n3cnc(C4CN(CC(F)(F)F)C4)c3)(C1)C2` [Example 67, 2-(4-chloro-3-fluoro-phenoxy)-N-[3-[4-[1-(2,2,2-trifluoroethyl)azetidin-3-yl]imidazol-1-yl]-1-bicyclo[1.1.1]pentanyl]acetamide], with under 1 µM. The same measure, in the same setting: as for `N#CC1CC(c2nnc(C34CC(NC(=O)COc5ccc(Cl)c(F)c5)(C3)C4)o2)C1` (stereo not drawn) [Example 29, 2-(4-chloro-3-fluoro-phenoxy)-N-[1-[5-(3-cyanocyclobutyl)-1,3,4-oxadiazol-2-yl]-3-bicyclo[1.1.1]pentanyl]acetamide], the figure is under 1 µM; as for `O=C(NC12CC(c3nnc([C@H]4C[C@@H](OC(F)(F)F)C4)o3)(C1)C2)c1ccc2cc(Cl)c(F)cc2n1` [Example 196], under 1 µM; as for `O=C(NC12CC(c3nnc([C@H]4C[C@H](OC(F)(F)F)C4)o3)(C1)C2)OCc1ccc(Cl)cc1` [Example 111, (4-chlorophenyl)methyl-N-[3-[5-[3-trans-(trifluoromethoxy)cyclobutyl]-1,3,4-oxadiazol-2-yl]-1-bicyclo[1.1.1]pentanyl]carbamate], under 1 µM. Still for that read-out and setting: then `O=C(CO[C@H]1C[C@H](OC(F)(F)F)C1)NC12CC(n3cnc(-c4ccc(Cl)cc4)c3)(C1)C2` [Example 141], with under 1 µM; and `O=C(NC12CC(n3cnc(-c4ccc(Cl)c(F)c4)c3)(C1)C2)[C@H]1C[C@@H](OC(F)(F)F)C1` [Example 153], with under 1 µM. Turning to `O=C(COc1ccc(C2CC2)cc1)NC12CC(c3nnc([C@H]4C[C@@H](OC(F)(F)F)C4)o3)(C1)C2` [Example 120, 2-(4-cyclopropylphenoxy)-N-[3-[5-[3-cis-(trifluoromethoxy)cyclobutyl]-1,3,4-oxadiazol-2-yl]-1-bicyclo[1.1.1]pentanyl]acetamide], the IC50 is under 1 µM. Regarding `Cc1ccc(-c2cn(C34CC(NC(=O)CO[C@H]5C[C@@H](OC(F)(F)F)C5)(C3)C4)cn2)cc1F` [Example 140], the IC50 is under 1 µM. On to `O=C(CO[C@@H]1CC[C@H](OC(F)(F)F)C1)NC12CC(c3nnc([C@H]4C[C@@H](OC(F)(F)F)C4)o3)(C1)C2` [Example 114, N-[3-[5-[3-cis-(trifluoromethoxy)cyclobutyl]-1,3,4-oxadiazol-2-yl]-1-bicyclo[1.1.1]pentanyl]-2-[3-cis-(trifluoromethoxy)cyclopentoxy]acetamide], for which the IC50 lay in the range of 1 to 10 µM. Same read-out and setting: then `O=C(COc1ccc(Cl)c(F)c1)NC12CC(NCCO[C@H]3C[C@@H](n4nccn4)C3)(C1)C2` [Example 197], with under 1 µM; and `O=C(NC12CC(c3nnc([C@H]4C[C@@H](OC(F)(F)F)C4)o3)(C1)C2)c1nc2cc(Cl)ccc2s1` [Example 175], with under 1 µM. Same read-out and setting: then `CC(CC(F)F)c1nnc(C23CC(NC(=O)COc4ccc(Cl)c(F)c4)(C2)C3)o1` (stereo not drawn) [Example 7, 2-(4-chloro-3-fluoro-phenoxy)-N-[1-[5-(3,3-difluoro-1-methyl-propyl)-1,3,4-oxadiazol-2-yl]-3-bicyclo[1.1.1]pentanyl]acetamide], with under 1 µM; and `CN(CCO[C@H]1C[C@@H](OC(F)(F)F)C1)C12CC(NC(=O)COc3ccc(Cl)c(F)c3)(C1)C2` [Example 132, 2-(4-chloro-3-fluoro-phenoxy)-N-[3-[methyl-[2-[3-cis-(trifluoromethoxy)cyclobutoxy]ethyl]amino]-1-bicyclo[1.1.1]pentanyl]acetamide], with under 1 µM; and `O=C(COc1ccc(Cl)c(F)c1)NC12CC(c3nnc(CN4CCC(F)(F)C4)o3)(C1)C2` [Example 125, 2-(4-chloro-3-fluoro-phenoxy)-N-[3-[5-[(3,3-difluoropyrrolidin-1-yl)methyl]-1,3,4-oxadiazol-2-yl]-1-bicyclo[1.1.1]pentanyl]acetamide], with under 1 µM. On the same count and under the same terms, then `O=C(CC(O)c1ccc(Cl)cc1)NC12CC(c3nnc([C@H]4C[C@@H](OC(F)(F)F)C4)o3)(C1)C2` (stereo partly drawn) [Example 257], with under 1 µM; and `O=C(CO[C@H]1C[C@@H](OC(F)(F)F)C1)NC12CC(n3cnc(-c4ccc(C(F)(F)F)cc4CO)c3)(C1)C2` [Example 272], with under 1 µM; and `O=C(COc1ccc(Cl)c(F)c1)NC12CC(c3nnc(CC4CCC4)o3)(C1)C2` [Example 38, 2-(4-chloro-3-fluoro-phenoxy)-N-[1-[5-(cyclobutylmethyl)-1,3,4-oxadiazol-2-yl]-3-bicyclo[1.1.1]pentanyl]acetamide], with under 1 µM. Turning to `O=C(NC12CC(c3nnc([C@H]4C[C@@H](OC(F)(F)F)C4)o3)(C1)C2)c1nc2cc(Cl)ccn2n1` [Example 176], the IC50 is under 1 µM. With `N#C[C@H]1C[C@H](n2cc(C34CC(NC(=O)COc5ccc(Cl)c(F)c5)(C3)C4)nn2)C1` [Example 34, 2-(4-chloro-3-fluorophenoxy)-N-(3-(1-((trans)-3-cyanocyclobutyl)-1H-1,2,3-triazol-4-yl)bicyclo[1.1.1]pentan-1-yl)acetamide], the IC50 is under 1 µM.

The experiment is the same for the next values; noted with them: read-out: Activity (IC50); H4 ATF4-NLuc (clone 17) cells; compound 30 minutes, then 50 um sodium arsenite for 6 hours; luminescence readout.
Regarding `O=C(COc1ccc(Cl)c(F)c1)NC12CC(N3C[C@@H](C4CC(OC(F)(F)F)C4)OC3=O)(C1)C2` (single isomer, unassigned) [Example 209], the IC50 is under 1 µM. With `O=C(NC12CC(c3nnc([C@H]4C[C@@H](OC(F)(F)F)C4)o3)(C1)C2)c1ccc2cc(F)ccc2n1` [Example 189, 6-fluoro-N-[1-[5-[3-cis-(trifluoromethoxy)cyclobutyl]-1,3,4-oxadiazol-2-yl]-3-bicyclo[1.1.1]pentanyl]quinoline-2-carboxamide], the IC50 is under 1 µM. Still for that read-out and setting: as for `O=C(COC[C@H]1C[C@@H](OC(F)(F)F)C1)NC12CC(c3nnc([C@H]4C[C@@H](OC(F)(F)F)C4)o3)(C1)C2` [Example 226], the figure is under 1 µM. For the molecule `O=C(COc1ccc(Cl)cc1)NC12CC(c3nnc([C@H]4C[C@H](COC(F)(F)F)C4)o3)(C1)C2` [Example 87, 2-(4-chlorophenoxy)-N-[3-[5-[3-trans-(trifluoromethoxymethyl)cyclobutyl]-1,3,4-oxadiazol-2-yl]-1-bicyclo[1.1.1]pentanyl]acetamide], the IC50 was under 1 µM. The same measure, in the same setting: then `O=C(COC1CC(OC(F)(F)F)C1)NC12CC(c3nnc(C4C[C@H]4COC(F)(F)F)o3)(C1)C2` (single isomer, unassigned) [Example 91, 2-[3-cis-(trifluoromethoxy)cyclobutoxy]-N-[3-[5-[2-trans-(trifluoromethoxymethyl)cyclopropyl]-1,3,4-oxadiazol-2-yl]-1-bicyclo[1.1.1]pentanyl]acetamide], with under 1 µM.
